# Test results: article PMC5923171, “Novel Zinc-Attenuating Compounds as Potent Broad-Spectrum Antifungal Agents with In Vitro and In Vivo Efficacy” (Antimicrobial Agents and Chemotherapy, 2018)
# Like-named read-outs stand apart in the source and are kept apart here.
# Assays:
# [1] = system: C. albicans; test: Resistance study (repeated exposure); type: cell-based, Candida albicans; details: SDwoz medium, 36-day period, 22 passages
# Protocol: The propensity for resistance development was investigated as also described previously ([41]), but with the following modifications. […] Over a 36-day period, culture aliquots of 100 μl were periodically (every 1 to 2 days) transferred (passaged) to new culture tubes with 900 μl of fresh medium and fresh compound. […] Cells were passaged a total of 22 times, and cultures were periodically tested for antifungal susceptibility by following the protocol for antifungal susceptibility testing, as described above.
# [2] = system: Candida albicans SC5314; test: In vivo fungal kidney burden candidiasis model; design: species or system BALB/c mice; details: fluconazole 3 mg/kg p.o.
# Protocol: A murine model of systemic candidiasis was established according to a previously described method ([44]). BALB/c mice were infected with a 0.1-ml inoculum (1 × 10^5 to 5 × 10^5 CFU) of Candida albicans SC5314 cells by the intravenous route on day 0. Compounds were tested at doses of 60 mg/kg. Administration of compound was initiated 24 h prior (day −1) to infection (day 0) by the intraperitoneal route, dosing twice a day for 4 days (day −1 to day 2). ZAC307 was also evaluated with administration of the compounds given after the infection at day 0 (no pretreatment) and following dosing twice a day for 3 days (days 0 to 2). Fluconazole was used as a comparator drug. Six mice were used for each group, and the untreated control group was exposed to the vehicle alone. ZAC989 and ZAC307 were formulated by taking 60 mg of compound and adding this to 2 ml and 4 ml of 0.1 N NaOH, respectively. After mixing and sonication of the resulting solutions, 4 ml of purified water was added. The pH was adjusted to 9.0 with 0.1 N HCl solution, followed by the addition of 90 mg of NaCl. The solutions were then diluted to 10 ml and filtered through a 0.22-μm polyvinylidene difluoride (PVDF) filter. Sample collection and processing were performed as follows. Twelve hours after the last dose, all treated and untreated animals were sacrificed by cervical dislocation and kidneys were collected in 3 ml of sterile normal saline. The samples were homogenized, serially diluted, and plated on Sabouraud dextrose agar (SDA). SDA plates were incubated for 24 to 48 h at 35°C, and CFU were enumerated and reported as log CFU/kidney. The endpoint was mean log CFU of fungi in kidneys of treated animals compared to that of untreated animals. The study was conducted in conformance with an application submitted to the Committee for the Purpose of Control and Supervision of Experiments on Animals (CPCSEA), New Delhi, India, after approval from the Institutional Animal Ethics Committee (IAEC).
# [3] = cited from earlier work
# [4] = system: C. albicans SC5314; test: Time-kill assay; type: cell-based, Candida albicans; details: 0.5 μg/ml AMB, 3.6 μg/ml ZAC989, 4.4 μg/ml EDTA, 4.2 μg/ml TPEN; up to 24 h
# Protocol: C. albicans SC5314 cells (10^5 CFU/ml) were incubated in 10 ml of RPMI medium at 30°C with gentle agitation (150 rpm) in the presence of EDTA (15 μM), TPEN (10 μM), ZAC989 (10 μM), or AMB (0.5 μM). At the desired time points (0, 3, 5.5, and 24 h), a 100-μl aliquot was removed for each test condition and serially diluted (10-fold) in saline (0.9% NaCl), and 30 μl of each dilution was plated on YPD agar plates. The colony count on each YPD plate was determined after incubation at 30°C for 48 h ([40]). C. albicans cells treated with DMSO (1%, vol/vol) served as a control.
# [5] = Fluorescence-based competition assay using FluoZin-3 (compound-Zn2+ dissociation constant); type: binding; details: FluoZin-3 competition, PBS pH 7.4, room temperature; read-out: Compound-Zn^2+ KD
# Protocol: The dissociation constant (Kd) of zinc to zinc-attenuating compounds was determined at room temperature using FluoZin-3 (F24194; […] Testing buffer consisted of PBS (pH 7.4) with 200 nM ZnCl2 and 500 nM FluoZin-3. In a microtiter plate, 98 μl of testing buffer was mixed with 2 μl of compound at a range of concentrations to determine the half-maximal inhibitory concentration (IC50). Testing plates were incubated for 2 min before being read at an excitation wavelength of 485 nm and an emission wavelength of 516 nm with a Fluoroskan Ascent microplate fluorometer (Thermo Fisher Scientific).
# [6] = system: C. albicans SC5314; test: Antifungal susceptibility testing (MIC); type: cell-based, Candida albicans
# Protocol: (§1) Antifungal susceptibility testing was carried out as described previously ([38], [39]), with a few modifications. Briefly, for each yeast or mold growth inhibition assay, frozen stocks of yeast cells or spores were diluted to a final concentration of 0.5 × 10^5 to 2.5 × 10^5 CFU/ml in sterile water. ZAC989, ZAC307, and ZAC623 were dissolved in DMSO to 10 mM stocks from which half-log serial dilutions were prepared. Growth assays were subsequently performed by pipetting 3 μl of compound dissolved in DMSO (giving a final concentration of 1.5% DMSO), 100 μl of cell-spore suspension, and 97 μl of 2× RPMI medium (20.8 g/liter of RPMI 1640 medium, 69.06 g/liter of morpholinepropanesulfonic acid [MOPS], 36 g/liter of glucose) into a microtiter plate that was incubated for 24 h (yeasts) or 48 to 72 h (molds) at 34°C. Fungal growth was determined spectrophotometrically by optical density reading of each well at a wavelength of 492 nm on a Victor X5 (Perkin-Elmer) plate reader. […] Standard errors between repeated experiments were generally below 5%. The growth effect of exogenous addition of various divalent metals was evaluated by performing the antifungal susceptibility assay in the presence of 5 μM ZAC989 or ZAC307 and with increasing concentrations (0.003 to 50 μM) of ZnSO4, CuSO4, (NH4)2Fe(SO4)2, MgCl2, and CaCl2.
# [7] = system: C. parapsilosis ATCC 22019; test: Antifungal susceptibility testing (MIC); type: cell-based, Candida parapsilosis; details: Lodderomyces parapsilosis, ATCC22019; at least 50% growth inhibition, RPMI, 24 h, 34°C
# Protocol: as §1
# [8] = system: C. krusei ATCC 6258; test: Antifungal susceptibility testing (MIC); type: cell-based, Candida krusei; details: Pichia kudriavzevii, ATCC6258; at least 50% growth inhibition, RPMI, 24 h, 34°C
# Protocol: as §1
# [9] = system: A. fumigatus; design: method as in PMID 27401578; details: monotherapy; cited from earlier work
compound,measurement,setting,value
"OC(Cn1cncn1)(Cn1cncn1)c1ccc(F)cc1F [Fluconazole, fluconazole, reference compound]",change in the MIC after repeated exposure,[1],significant increase in the MIC
same,Mean log CFU/kidney,[2],3.02 ± 0.22 log CFU/kidney
same,Mean log CFU/kidney reduction,[2]; vs untreated control,2.78 log CFU/kidney
COc1ccc(N(CC(=O)O)CC(=O)O)c(OCCOc2cc(-c3c4cc(F)c(=O)cc-4oc4cc(O)c(F)cc34)ccc2NCC(=O)O)c1 [FluoZin-3],Kd,[3]; read-out: Kd (FluoZin-3–Zn^2+),15 nM
C[C@@H]1[C@H](O)[C@@H](C)/C=C/C=C/C=C/C=C/C=C/C=C/C=C/[C@H](O[C@@H]2O[C@H](C)[C@@H](O)[C@H](N)[C@@H]2O)C[C@@H]2O[C@](O)(C[C@@H](O)C[C@@H](O)[C@H](O)CC[C@@H](O)C[C@@H](O)CC(=O)O[C@H]1C)C[C@H](O)[C@H]2C(=O)O [amphotericin B],time-kill activity (fungistatic or fungicidal),[4],fungicidal activity after 3 h of exposure
"Cc1cc(N)n(-c2cc(N3CC[C@H](Oc4cnccc4C#N)C3)ncn2)n1 [ZAC623, 3-[(3S)-1-[6-(5-amino-3-methyl-pyrazol-1-yl)pyrimidin-4-yl]pyrrolidin-3-yl]oxypyri-dine-4-carbonitrile]",Kd,[5],> 6000 nM
same,growth-inhibitory activity (in words),[6],did not display growth-inhibitory activity
same,MIC,"[6]; Candida albicans, SC5314, 24 h, at least 50% growth inhibition, RPMI, 24 h, 34°C, read-out: MIC",> 54 µg/mL
same,MIC,[7],> 54 µg/mL
same,MIC,[8],> 54 µg/mL
COc1cc(O)c(-c2nc3c(CNCc4ccccn4)cccc3o2)cc1OC [Zinbo-5],Kd,[3]; read-out: affinity constant for zinc,2.2 nM
c1cnc2c(c1)ccc1cccnc12 [phenanthroline],survival and fungal burden,[9],significant improvements in survival with concomitant reduction in fungal burden
